# Patent US5723616A, “Process for the preparation of a growth hormone secretagogue” (priority 1996, dated 1998)
# Where two headings read alike, the source gives them in different places.
# Legend:
# [1] = solubility of the sulfonamide in various mixtures of toluene and n-PrOH, determined by HPLC assay; format: physicochemical; conditions: organic solvent or mixture, read-out: solubility of 1
# Description: The temperature of both the head and pot rose from 94° C. to 98° C. during the solvent switch. Toluene and n-PrOH form an azeotrope boiling at 97.2° C. composed of 47.5% toluene and 52.5% n-PrOH. The mixture was allowed to cool gradually to 20° C. over 3h and aged for 12 h. […] The solubility of the sulfonamide in various mixtures of toluene and n-PrOH has been determined by HPLC assay: […]
# [2] = hygroscopicity observed at filtration of the wet crystals; format: physicochemical; conditions: wet crystals during filtration (N2 essential)
# Description: The volume of the solution of 15 from the previous step was adjusted to 60 L with ethyl acetate and EtOH (4.8 L) was added. The MsOH (316 mL) was added in 3 L of EtOAc at 45° C. To the deep red homogeneous solution was added 496 g of the title compound Form I seed (10% seed based on the weight of the free amine was employed). The temperature rose to ca. 48° C. and the reaction was aged at 52° C. for 1.5 hours. Analysis indicated complete conversion to the title compound (Form I). (At less than 10% seed longer age (>3 hours) was required). The slurry was allowed to cool to 20° C. overnight and was filtered in a centrifuge under N2. The cake was washed with 20 L of 8% EtOH in EtOAc. […] The batch was dried at 35° C. under vacuum to afford 2.7 Kg (56% overall yield) of the title compound (Form I) (99.9 A % purity; <0.1% enantiomer).
SMILES,solubility ([1]; 5% toluene in n-proh) [µg/mL],solubility ([1]; 10% toluene in n-proh) [µg/mL],solubility ([1]; 20% toluene in n-proh) [µg/mL],solubility ([1]; 25% toluene in n-proh) [µg/mL],solubility ([1]; 0% toluene in n-PrOH) [µg/mL],hygroscopicity of the wet crystals [2]
"CS(=O)(=O)N1CC2(CCN(C(=O)OCc3ccccc3)CC2)c2ccccc21 [Compound 1, CBZ-Spiroindoline-methanesulfonamide]",3020,4230,7510,10300,2360,
"CC(C)(N)C(=O)N[C@H](COCc1ccccc1)C(=O)N1CCC2(CC1)CN(S(C)(=O)=O)c1ccccc12 [Form I, N-[1(R)-[(1,2-dihydro-1-methanesulfonyl-spiro[3H-indole-3,4'-piperdin]-1'-yl)carbonyl]-2-(phenylmethyl-oxy)ethyl]-2-amino-2-methylpropanamide methanesulfonate]",,,,,,very hygroscopic
